1 molecule from ChEMBL document CHEMBL1131985, “9-[(2'S,3'S)-3'-formyl-2',3'-dihydroxypropyl]adenine: a facile affinity-labeling probe of human S-adenosyl-L-homocysteine hydrolase” (Bioorg Med Chem Lett, 1999) can be followed below.

For assay [1], the target named is T1, Adenosylhomocysteinase (Homo sapiens, UniProt P23526). The experiment in a line: Affinity and reactivity of an affinity-labeling reagent, was assessed from the inactivation constant value.
Target sequence in this assay (P23526 2-432 limits assumed): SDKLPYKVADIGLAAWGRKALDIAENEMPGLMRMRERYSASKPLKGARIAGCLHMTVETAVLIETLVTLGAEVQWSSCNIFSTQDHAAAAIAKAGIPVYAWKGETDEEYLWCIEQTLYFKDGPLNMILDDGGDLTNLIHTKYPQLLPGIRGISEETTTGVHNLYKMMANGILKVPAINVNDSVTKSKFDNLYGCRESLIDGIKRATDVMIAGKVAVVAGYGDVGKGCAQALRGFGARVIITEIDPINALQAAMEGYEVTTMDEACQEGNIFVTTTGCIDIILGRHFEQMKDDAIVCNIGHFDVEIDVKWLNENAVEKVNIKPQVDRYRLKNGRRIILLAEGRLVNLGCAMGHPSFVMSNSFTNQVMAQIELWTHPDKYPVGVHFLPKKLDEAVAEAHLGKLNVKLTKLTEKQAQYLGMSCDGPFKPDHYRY
Assay [2] concerns the target T1, Adenosylhomocysteinase. The experiment in a line: Affinity and reactivity of an affinity-labeling reagent, was assessed from the inhibitory constant value.
Target sequence in this assay (P23526 whole entry): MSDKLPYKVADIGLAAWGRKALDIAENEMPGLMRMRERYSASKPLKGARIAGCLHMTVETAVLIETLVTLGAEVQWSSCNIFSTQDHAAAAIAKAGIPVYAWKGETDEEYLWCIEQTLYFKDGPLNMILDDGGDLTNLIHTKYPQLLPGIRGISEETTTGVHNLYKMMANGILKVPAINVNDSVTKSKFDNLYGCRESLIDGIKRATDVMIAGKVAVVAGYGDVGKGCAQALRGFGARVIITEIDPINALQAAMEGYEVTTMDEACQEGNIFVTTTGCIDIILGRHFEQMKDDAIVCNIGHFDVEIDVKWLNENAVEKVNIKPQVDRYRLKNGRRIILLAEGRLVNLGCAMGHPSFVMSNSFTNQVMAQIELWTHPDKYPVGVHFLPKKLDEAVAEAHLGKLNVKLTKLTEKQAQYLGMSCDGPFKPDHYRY
In assay [3] the target is T1, Adenosylhomocysteinase. The experiment in a line: Concentration with maximum apparent affinity (Kapp) for S-adenosyl-l-homocysteine (SAH) hydrolase was reported.
Target sequence in this assay (P23526 2-432 limits assumed): as the sequence (P23526 2-432 limits assumed) above

The term Ki denotes a measure of affinity in units of concentration, obtained from inhibition or displacement. The low end stands for tighter binding, the high end for weaker binding.

As to `Nc1ncnc2c1ncn2C[C@H](O)[C@H](O)C=O`, the K inact at Adenosylhomocysteinase [1] was 0.09 min⁻¹. The inhibition constant Ki at Adenosylhomocysteinase [2] came out at 8.8 µM. Moreover, the K app at Adenosylhomocysteinase [3] worked out at 100 µM.
